Values after ≈ are worked out from the molar mass of the structure shown. Like-named read-outs stand apart in the source and are kept apart here.

The test system of the experiment is E. coli strain NDM-1 (ATCC:BAA-2471). The experiment can be described thus: MIC against multidrug-resistant sepsis-model strain. The experiment is classed as cell-based.

colistin returned an MIC of 2.5 µg/mL.

In the case of `C[C@@H](O)[C@H]1C(=O)N2C(C(=O)O)=C(SCCN=CN)C[C@H]12` [imipenem], the MIC (Escherichia coli, BAA2471) worked out at 32 µg/mL (≈ 107 µM).

For the compound `O=C(O)c1cn(C2CC2)c2cc(N3CCNCC3)c(F)cc2c1=O` [ciprofloxacin], the MIC (Escherichia coli, BAA2471) was > 32 µg/mL.

Source of the values: PMC10785772 (Science translational medicine, 2023).
